Reference: EP4667468A1, “COMPOUND FOR INHIBITING NLRP3, PREPARATION METHOD, AND USE” (Shenzhen Zhongge Biological Technology Co., Ltd., priority 2023, dated 2024)

Assays:
[1] = target: IL-1β secretion of THP-1 cells (Homo sapiens, UniProt Q96P20); assay: Effect of NLRP3 inhibitor on IL-1β secretion of THP-1 cells (AlphaLISA); assay type: cell-based; conditions: PMA 50nM, LPS 100ng/ml, Nigericin 10µM, IL-1β in supernatant
Experimental: This experiment used the PerkinElmer AlphaLISA_human_IL1β kit (AL220 C/F). The detection buffer was RPMI-1640+10FBS. AlphaLISA Immunoassay Buffer, AlphaLISA Anti-IL1β Acceptor beads, Streptavidin (SA)-coated Donor beads, and Biotinylated Antibody Anti-IL1β were all included in the kit.
The density of THP1 cells was adjusted to 4×10^5 cells/mL, PMA (final concentration 50nM) was added, inoculated into 96-well flat-bottom plates at 200µL/well, and stimulated overnight at 37°C, 5% CO2 (try to <16h). The next day, the supernatant was discarded, and the flat washed twice with DPBS (200µL/time). Then LPS solution (final concentration of 100ng/ml) was added at 198µL/well , incubated at 37°C, 5% CO2 for 3h. 1µL of the corresponding concentration of compounds was added to each well according to the experimental MAP, incubated at 37°C, 5% CO2 for 1h. 1µL Nigericin (final concentration of 10µM) was added to each well, incubated overnight at 5% CO2 (>18h). On the third day, 5µL of supernatant was taken, diluted 20 times, and the content of IL-Iβ in the supernatant was detected by Human Interleukin 1 beta (IL1β) Kit. Envision was used to read the AlphaLISA test value of Ex = 680/ Em = […]. GraphPad Prism 9.5.0 was used to analyze the data, and the IC50 value of the compound for IL-Iβ antagonism was fitted by four-parameter Logistic. […] Table 2: Results of IC50 experiments using THP-1 cells to detect NLRP3 inhibitors

[2] = Liver microsome metabolic stability, rat; assay type: in vitro ADME, rats; conditions: rat (r) liver microsomes 0.5 mg/ml, 45 min; read-out: LMS (h,r,m) (% rem, 45 min)
Experimental: (§1) Purpose: This experiment investigates the metabolic stability of the compound in liver microsomes of different species such as humans, mice and rats, and the residual content of the test compound after incubation with liver microsomes of different species such as humans, mice and rats.
(§2) Preparation of 500 µM solution of target compound and positive control: 5 µL of each 10 mM stock solution was taken, added to 95 µL acetonitrile, and mixed for 30 s;
(§3) Preparation of 6 mM NADPH solution: 100 mM Stock aliquot liquid was diluted with Mg-Mg-K-Buffer.
(§4) • 2.1.1 Liver microsome solution: 18.75 µL of 20 mg/mL HLM, RLM, MLM, DLM, MOLM (final concentration: 0.5 mg/ml) were taken and placed them in each well of a 96-well plate; • 2.1.2 1.5 µL of 500 µM solution of each compound was added respectively; • 2.1.3 479.8 µL of phosphate buffer was taken, then added to each compound well, and mixed at 1000 rpm in an oscillating mixer for 10 s.
(§5) 30 µL of the above samples were taken and aliquoted to a new 96-well plates respectively (including NADPH group, n=2, and no NADPH group at 0 and 45 min, n=1), marked as 0, 5, 15, 30 and 45 min; […]
(§6) The slope was calculated based on the LN value of the compound concentration percentage and time as the coordinate axis, and the residual content of the compound after incubation with liver microsomes was calculated based on the slope and formula. […]

[3] = Liver microsome metabolic stability, human; assay type: in vitro ADME, humans; conditions: human (h) liver microsomes 0.5 mg/ml, 45 min; read-out: LMS (h,r,m) (% rem, 45 min)
Experimental: as §1, §2, §3, §4, §5, §6

[4] = test system: iodoacetic acid (MIA)-induced SD rat knee osteoarthritis model; assay: Efficacy on iodoacetic acid-induced SD rat knee osteoarthritis model; assay type: in vivo, SD rats; conditions: 30mg/kg orally once a day from Day 7 to Day 42; for widening of the knee joints: compared with the model blank control group, 21 days to 42 days after modeling
Experimental: Purpose: Evaluate the efficacy of MCC950 (Positive reference compound) and compound 111 of the present invention on iodoacetic acid (MIA)-induced SD rat knee osteoarthritis model. Experimental materials: Experimental male SD rats, 4 weeks old. Model induction began after the experimental animals were adapted to the animal environment for 7 days. Day 0, the rats were anesthetized, the hair around the left knee joint was removed, and the skin was disinfected. The left leg was flexed 90° to expose the patellar platform. The depression in the middle of the platform was touched by hand to find the femoral condyle, patella and ligament. The syringe needle was inserted from the bottom of the patella on both sides of the patellar ligament to the direction of the femoral condyle. When a clear sense of empty space was felt, 50µL of iodoacetic acid solution was injected. Day 7 Grouping was performed according to the width of the knee joint on the induced side. The groups were: normal control group (healthy control without modeling, 5% DMSO+10% Solutol+85% Saline), model blank control group (5% DMSO+10% Solutol+85% Saline), MCC950 30mg/kg, and compound 111 of the present invention 30mg/kg. Starting from Day 7, the normal control group and the model blank control group were given the solvent (5% DMSO+10% Solutol+85% Saline) orally once a day, and the other groups were given the corresponding compounds orally once a day until the end of the administration on Day 42. The knee joint width and body weight of the rats were measured once on Day 7, 14, 21, 28, 35, and 42. This experiment tested the efficacy of MCC950 (Positive compound) and compound 111 of the present invention on the SD rat knee osteoarthritis model induced by iodoacetic acid (MIA), see Figures 1 and 2.

[5] = Liver microsome metabolic stability, mouse; assay type: in vitro ADME, mice; conditions: mouse (m) liver microsomes 0.5 mg/ml, 45 min; read-out: LMS (h,r,m) (% rem, 45 min)
Experimental: as §1, §2, §3, §4, §5, §6

Sequence of IL-1β secretion of THP-1 cells (Q96P20 whole entry): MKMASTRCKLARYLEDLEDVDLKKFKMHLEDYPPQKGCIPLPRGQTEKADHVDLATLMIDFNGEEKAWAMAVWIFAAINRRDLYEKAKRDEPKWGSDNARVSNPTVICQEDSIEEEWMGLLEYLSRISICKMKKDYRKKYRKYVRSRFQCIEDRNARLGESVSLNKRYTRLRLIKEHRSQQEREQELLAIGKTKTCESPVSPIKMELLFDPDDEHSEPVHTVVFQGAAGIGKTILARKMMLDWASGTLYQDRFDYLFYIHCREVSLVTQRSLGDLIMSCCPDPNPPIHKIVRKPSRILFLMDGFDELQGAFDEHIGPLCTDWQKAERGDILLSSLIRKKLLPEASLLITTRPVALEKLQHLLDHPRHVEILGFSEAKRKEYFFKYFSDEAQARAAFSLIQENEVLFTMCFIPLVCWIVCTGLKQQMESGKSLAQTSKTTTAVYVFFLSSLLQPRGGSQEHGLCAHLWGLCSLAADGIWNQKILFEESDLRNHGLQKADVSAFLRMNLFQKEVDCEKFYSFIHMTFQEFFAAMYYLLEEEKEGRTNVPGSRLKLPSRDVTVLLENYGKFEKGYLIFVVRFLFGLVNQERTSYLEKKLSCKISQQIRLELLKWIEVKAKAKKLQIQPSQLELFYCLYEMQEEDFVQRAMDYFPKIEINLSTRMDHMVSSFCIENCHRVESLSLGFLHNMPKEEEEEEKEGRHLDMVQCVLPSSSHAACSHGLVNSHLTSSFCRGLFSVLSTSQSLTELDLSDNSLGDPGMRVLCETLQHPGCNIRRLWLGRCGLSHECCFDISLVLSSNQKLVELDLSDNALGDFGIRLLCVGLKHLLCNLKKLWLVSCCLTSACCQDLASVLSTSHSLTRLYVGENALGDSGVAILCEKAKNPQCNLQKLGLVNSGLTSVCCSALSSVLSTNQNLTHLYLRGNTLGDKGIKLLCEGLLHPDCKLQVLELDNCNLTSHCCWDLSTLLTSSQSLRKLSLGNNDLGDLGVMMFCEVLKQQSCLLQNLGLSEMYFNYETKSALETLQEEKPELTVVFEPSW

| SMILES | IC50 [1] | also measured |
| --- | --- | --- |
| CCN1CCC[C@@H](n2ccc3cc(-c4c(C)cc(C(F)(F)F)cc4O)nnc32)C1 [11-a] | < 0.05 µM |  |
| CCN1CCC[C@@H](N2CC(=O)Nc3cc(-c4c(C)cc(C(F)(F)F)cc4O)nnc32)C1 [12-a] | < 0.05 µM |  |
| Cc1cc(C(F)(F)F)cc(O)c1-c1ccc2[nH]c(NCC(C)(C)O)nc2n1 [Compound 6] | 0.1 to 0.5 µM |  |
| CC(=O)N1CCOC[C@H]1CNc1nc2nc(-c3c(C)cc(C(F)(F)F)cc3O)ccc2o1 [Compound 111] |  | remaining at 0.75 h, 1 µM [2]: 82.5%; remaining at 0.75 h, 1 µM [3]: 93.2%; body weight of the rats [4]: without affecting the body weight of the rats; widening of the knee joints [4]: significantly inhibit the widening of the knee joints; remaining at 0.75 h, 1 µM [5]: 91.3% |
| CC(C)(O)c1coc(S(=O)(=O)NC(=O)Nc2c3c(cc4c2CCC4)CCC3)c1 [MCC950, reference compound] |  | widening of the knee joints [4]: significantly inhibit the widening of the knee joints |
| Cc1cc(C(F)(F)F)cc(O)c1-c1ccc2oc(N3CCOC[C@H]3C)nc2n1 [compound 371] | 0.05 to 0.1 µM |  |
| Oc1cc(Cl)cc(O)c1-c1ccc2oc(N3CCOCC3)nc2n1 [compound 376] | < 0.05 µM |  |
| Cc1cc(C(F)(F)F)cc(O)c1-c1ccc2oc(N3CC4CCC(C3)O4)nc2n1 [compound 381] | 0.1 to 0.5 µM |  |
| Cc1cc(C(F)(F)F)cc(O)c1-c1ccc2oc(N3CCS(=O)(=O)CC3)nc2n1 [compound 384] | < 0.05 µM |  |
| Cc1cc(Cl)cc(O)c1-c1ccc2oc(N3CCS(=O)(=O)CC3)nc2n1 [compound 387] | 0.05 to 0.1 µM |  |
| CCS(=O)(=O)N1CCN(c2nc3nc(-c4c(C)cc(C(F)(F)F)cc4O)ccc3o2)CC1 [compound 388] | 0.05 to 0.1 µM |  |
| Cc1cc(C(F)(F)F)cc(O)c1-c1ccc2oc(N3CCN(S(C)(=O)=O)CC3)nc2n1 [compound 390] | < 0.05 µM |  |
| Cc1cc(C(F)(F)F)cc(O)c1-c1ccc2oc(N3CCN(S(=O)(=O)C4CC4)CC3)nc2n1 [compound 392] | < 0.05 µM |  |
| CCS(=O)(=O)N1CCN(c2nc3nc(-c4c(C)cc(C(F)(F)F)cc4O)ccc3o2)C[C@@H]1C [compound 394] | 0.05 to 0.1 µM |  |
| CCN1C[C@H](F)C[C@@H](Nc2nc3nc(-c4c(C)cc(C(F)(F)F)cc4O)ccc3o2)C1 [compound 397] | 0.1 to 0.5 µM |  |
| Cc1cc(C(F)(F)F)cc(O)c1-c1ccc2oc(N[C@@H]3CCCN(C4CC4)C3)nc2n1 [compound 399] | < 0.05 µM |  |
| Cc1cc(C(F)(F)F)cc(O)c1-c1ccc2oc(N[C@@H]3CCCN(C(C)C)C3)nc2n1 [compound 400] | < 0.05 µM |  |
| Cc1cc(C(F)(F)F)cc(O)c1-c1ccc2oc(N[C@@H]3CCCN(CCO)C3)nc2n1 [compound 404] | < 0.05 µM |  |
| Cc1cc(C(F)(F)F)cc(O)c1-c1ccc2oc(NC[C@@H](C)O)nc2n1 [compound 413] | 0.05 to 0.1 µM |  |
| Cc1cc(C(F)(F)F)cc(O)c1-c1ccc2nc(N3CCS(=O)(=O)CC3)nn2n1 [compound 422] | 0.1 to 0.5 µM |  |
| Cc1cc(C(F)(F)F)cc(O)c1-c1ccc2nc(N3CCOCC3)nn2n1 [compound 423] | 0.1 to 0.5 µM |  |
| Cc1cc(C(F)(F)F)cc(O)c1-c1cc(C)c2nc(N3CCOCC3)nn2n1 [compound 424] | < 0.05 µM |  |

Now from value to compound, other results behind:

| IC50 [1] | SMILES | also measured |
| --- | --- | --- |
| < 0.05 µM | Cc1cc(C(F)(F)F)cc(O)c1-c1ccn2nc(N3CCOCC3)nc2n1 [compound 426] |  |
| < 0.05 µM | CCN1CCC[C@@H](Nc2nc3ccc(-c4c(C)cc(C(F)(F)F)cc4O)nn3n2)C1 [compound 439] |  |
| 0.05 to 0.1 µM | Cc1cc(C(F)(F)F)cc(O)c1-c1cc(C)n2nc(N3CCOCC3)nc2n1 [compound 440] |  |
| < 0.05 µM | CC(=O)NC[C@@H]1COCCN1c1nc2nc(-c3c(C)cc(C(F)(F)F)cc3O)cc(C)n2n1 [compound 441] |  |
| < 0.05 µM | CC(=O)NC[C@@H]1COCCN1c1nc2c(C)cc(-c3c(C)cc(C(F)(F)F)cc3O)nn2n1 [compound 442] |  |
| < 0.05 µM | Cc1cc(C(F)(F)F)cc(O)c1-c1cc(C)n2nc(N[C@@H]3CCCN(C)C3)nc2n1 [compound 443] |  |
| < 0.05 µM | Cc1cc(C(F)(F)F)cc(O)c1-c1ccn2nc(N[C@@H]3CCCN(C)C3)nc2n1 [compound 444] |  |
| < 0.05 µM | Cc1cc(C(F)(F)F)cc(O)c1-c1ccc2nc(N[C@@H]3CCCN(C)C3)nn2n1 [compound 445] |  |
| < 0.05 µM | Cc1cc(C(F)(F)F)cc(O)c1-c1cc(C)c2nc(N[C@@H]3CCCN(C)C3)nn2n1 [compound 446] |  |
| < 0.05 µM | CCN1CCC[C@@H](Nc2nc3c(C)cc(-c4c(C)cc(C(F)(F)F)cc4O)nn3n2)C1 [compound 447] |  |
| < 0.05 µM | CCN1CCC[C@@H](Nc2nc3nc(-c4c(C)cc(C(F)(F)F)cc4O)ccn3n2)C1 [compound 448] |  |
| < 0.05 µM | Cc1cc(C(F)(F)F)cc(O)c1-c1cc(C)n2nc(N[C@H]3CCCN(CCO)C3)nc2n1 [compound 460] |  |
| < 0.05 µM | CCN1CCC[C@H](Nc2nc3nc(-c4c(C)cc(C(F)(F)F)cc4O)cc(C)n3n2)C1 [compound 462] |  |
